Source: US9376442B2, “Methylpyrrolopyrimidinecarboxamides” (Takeda GmbH, priority 2009, dated 2016)

Molecular target: T1, PDE5A1 (Homo sapiens, UniProt O76074)
T1 construct: from tissue; host or cells: human platelets from fresh donor blood (10,000 x g supernatant of sonicated lysate)
Experiment: Inhibition of type 5 phosphodiesterase (PDE5) activity, modified SPA test with human platelet lysate
Assay type: biochemical
Settings: 0.5 μM cGMP, read-out: PDE5A1 inhibitory values [measured as −log IC50 (mol/l)] (converted)
Procedure, shortened: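 Scintillation proximity assay with [3H]cGMP tracer at 0.5 μM total cGMP, stopped after 15 min with beads containing IBMX. PDE3 and PDE2 activities suppressed with motapizone (1 μM) and a PDE2 inhibitor (10 nM). Human platelet supernatant served as the enzyme, with compound preincubated 5 min at 37° C; IC50 values from concentration-effect curves.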

| Compound | IC50 [nM] |
| --- | --- |
| CCC(=O)N[C@H]1CC[C@@H](NC(=O)c2c(C)[nH]c3c(-c4cc(C)c(F)cc4OCC4CC4)ncnc23)CC1 [Example E126, 4-[2-(Cyclopropylmethoxy)-4-fluoro-5-methylphenyl]-6-methyl-N-[cis-4-(propanoylamino)cyclohexyl]-5H-pyrrolo[3,2-d]pyrimidine-7-carboxamide] | < 1 |
| COCC(=O)N[C@H]1CC[C@@H](NC(=O)c2c(C)[nH]c3c(-c4cc(OC)c(F)cc4OCC4CC4)ncnc23)CC1 [Example E112, 4-[2-(Cyclopropylmethoxy)-4-fluoro-5-methoxyphenyl]-N-{cis-4-[(methoxyacetyl)amino]cyclohexyl}-6-methyl-5H-pyrrolo[3,2-d]pyrimidine-7-carboxamide] | < 1 |
| CCc1ccc(OCC2CC2)c(-c2ncnc3c(C(=O)NC4CCN(C(=O)[C@H](C)O)CC4)c(C)[nH]c23)c1 [Example F92, 4-[2-(Cyclopropylmethoxy)-5-ethylphenyl]-N-{1-[(2S)-2-hydroxypropanoyl]piperidin-4-yl}-6-methyl-5H-pyrrolo[3,2-d]pyrimidine-7-carboxamide] | < 1 |
| COc1cc(-c2ncnc3c(C(=O)N[C@@H]4CCN(C(=O)CO)C[C@H]4O)c(C)[nH]c23)c(OCC2CC2)cc1F (relative stereo) [Example F71, 4-[2-(Cyclopropylmethoxy)-4-fluoro-5-methoxyphenyl]-N-[(3R*,4R*)-1-glycoloyl-3-hydroxypiperidin-4-yl]-6-methyl-5H-pyrrolo[3,2-d]pyrimidine-7-carboxamide] | < 1 |
| CCC(=O)N[C@H]1CC[C@H](NC(=O)c2c(C)[nH]c3c(-c4cc(C(C)=O)ccc4OCC4CC4)ncnc23)CC1 [Example E167, 4-[5-Acetyl-2-(cyclopropylmethoxy)phenyl]-6-methyl-N-[trans-4-(propanoylamino)cyclohexyl]-5H-pyrrolo[3,2-d]pyrimidine-7-carboxamide] | < 1 |
| COc1cc(OCC2CC2)c(-c2ncnc3c(C(=O)N[C@H]4CC[C@@H](NC(=O)CO)CC4)c(C)[nH]c23)cc1F [Example F87, 4-[2-(Cyclopropylmethoxy)-5-fluoro-4-methoxyphenyl]-N-[cis-4-(glycoloylamino)cyclohexyl]-6-methyl-5H-pyrrolo[3,2-d]pyrimidine-7-carboxamide] | < 1 |
| CCC(=O)N1CC[C@@H](NC(=O)c2c(C)[nH]c3c(-c4cc(F)c(OC)cc4OCC4CC4)ncnc23)C1 [Example E187, 4-[2-(Cyclopropylmethoxy)-5-fluoro-4-methoxyphenyl]-6-methyl-N-[(3R)-1-propionylpyrrolidin-3-yl]-5H-pyrrolo[3,2-d]pyrimidine-7-carboxamide] | < 1 |
| COCC(=O)N1CCC(NC(=O)c2c(C)[nH]c3c(-c4cc(F)c(OC)cc4OCC4CC4)ncnc23)CC1 [Example E133, 4-[2-(Cyclopropylmethoxy)-5-fluoro-4-methoxyphenyl]-N-[1-(methoxyacetyl)piperidin-4-yl]-6-methyl-5H-pyrrolo[3,2-d]pyrimidine-7-carboxamide] | < 1 |
| CCC(=O)N1CC[C@@H](NC(=O)c2c(C)[nH]c3c(-c4cc(OC)c(F)cc4OCC4CC4)ncnc23)[C@H](O)C1 (relative stereo) [Example E114, 4-[2-(Cyclopropylmethoxy)-4-fluoro-5-methoxyphenyl]-N-[(3R*,4R*)-3-hydroxy-1-propionylpiperidin-4-yl]-6-methyl-5H-pyrrolo[3,2-d]pyrimidine-7-carboxamide] | < 1 |
| COc1cc(OCC2CC2)c(-c2ncnc3c(C(=O)N[C@@H]4CCN(C(C)=O)C4)c(C)[nH]c23)cc1F [Example E186, N-[(3R)-1-Acetylpyrrolidin-3-yl]-4-[2-(cyclopropylmethoxy)-5-fluoro-4-methoxyphenyl]-6-methyl-5H-pyrrolo[3,2-d]pyrimidine-7-carboxamide] | < 1 |
| COCC(=O)N[C@H]1CC[C@@H](NC(=O)c2c(C)[nH]c3c(-c4c(OCC5CC5)ccc5c4OCO5)ncnc23)CC1 [Example E11, 4-[5-(Cyclopropylmethoxy)-1,3-benzodioxol-4-yl]-N-{cis-4-[(methoxyacetyl)amino]cyclohexyl}-6-methyl-5H-pyrrolo[3,2-d]pyrimidine-7-carboxamide] | < 1 |
| CC(=O)c1ccc(OCC2CC2)c(-c2ncnc3c(C(=O)N[C@H]4CC[C@H](NC(=O)CO)CC4)c(C)[nH]c23)c1 [Example F104, 4-[5-Acetyl-2-(cyclopropylmethoxy)phenyl]-N-{trans-4-[(hydroxyacetyl)amino]cyclohexyl}-6-methyl-5H-pyrrolo[3,2-d]pyrimidine-7-carboxamide] | < 1 |
| COCC(=O)N1CCC(NC(=O)c2c(C)[nH]c3c(-c4cc(C(C)=O)ccc4OCC4CC4)ncnc23)CC1 [Example E165, 4-[5-Acetyl-2-(cyclopropylmethoxy)phenyl]-N-[1-(methoxyacetyl)piperidin-4-yl]-6-methyl-5H-pyrrolo[3,2-d]pyrimidine-7-carboxamide] | < 1 |
| COCC(=O)N1CC[C@@H](NC(=O)c2c(C)[nH]c3c(-c4cc(F)c(OC)cc4OCC4CC4)ncnc23)[C@H](O)C1 (relative stereo) [Example E144, 4-[2-(Cyclopropylmethoxy)-5-fluoro-4-methoxyphenyl]-N-[(3R*,4R*)-3-hydroxy-1-(methoxyacetyl)piperidin-4-yl]-6-methyl-5H-pyrrolo[3,2-d]pyrimidine-7-carboxamide] | < 1 |
| CCC(=O)N1CC[C@H](NC(=O)c2c(C)[nH]c3c(-c4ccc(F)cc4OCC4CC4)ncnc23)[C@@H](O)C1 (relative stereo) [Example E35, 4-[2-(Cyclopropylmethoxy)-4-fluorophenyl]-N-[(3S*,4S*)-3-hydroxy-1-propanoylpiperidin-4-yl]-6-methyl-5H-pyrrolo[3,2-d]pyrimidine-7-carboxamide] | < 1 |
| Cc1[nH]c2c(-c3cc(F)ccc3OCC3CC3)ncnc2c1C(=O)N[C@@H]1CCN(C(=O)[C@H](C)O)C1 [Example F29, 4-[2-(Cyclopropylmethoxy)-5-fluorophenyl]-N-{(3R)-1-[(2S)-2-hydroxypropanoyl]pyrrolidin-3-yl}-6-methyl-5H-pyrrolo[3,2-d]pyrimidine-7-carboxamide] | 1 to 10 |
| COc1ccc(OCC2CC2)c(-c2ncnc3c(C(=O)N[C@@H]4CCN(C(=O)CO)C4)c(C)[nH]c23)c1 [Example F47, 4-[2-(cyclopropylmethoxy)-5-methoxyphenyl]-N-[(3R)-1-glycoloylpyrrolidin-3-yl]-6-methyl-5H-pyrrolo[3,2-d]pyrimidine-7-carboxamide] | < 1 |
| COCC(=O)N1C[C@@H](O)[C@H](NC(=O)c2c(C)[nH]c3c(-c4cc(OC)ccc4OCC4CC4)ncnc23)C1 (relative stereo) [Example E194, 4-[2-(Cyclopropylmethoxy)-5-methoxyphenyl]-N-[(3R*,4R*)-4-hydroxy-1-(methoxyacetyl)pyrrolidin-3-yl]-6-methyl-5H-pyrrolo[3,2-d]pyrimidine-7-carboxamide] | 1 to 10 |
| COCC(=O)N1CC[C@H](NC(=O)c2c(C)[nH]c3c(-c4ccc(F)cc4OCC4CC4)ncnc23)[C@@H](O)C1 (relative stereo) [Example E36, 4-[2-(Cyclopropylmethoxy)-4-fluorophenyl]-N-[(3S*,4S*)-3-hydroxy-1-(methoxyacetyl)piperidin-4-yl]-6-methyl-5H-pyrrolo[3,2-d]pyrimidine-7-carboxamide] | 1 to 10 |
